Assay results taken from patent US20230146455A1, “TREATMENT OF INFLAMMATORY DISEASES WITH PEPTIDES AND PHARMACEUTICAL COMPOSITIONS” (Yuyu Pharma, Inc., priority 2020, published 2023).
“And” between values parts separate entries of the source, which are not always exact repeats. Identical values can stand only once. Where a SMILES comes first, the peptide text is derived from it. [ ]: non-standard residue; d: D form. Hyp = O=C(O)[C@@H]1C[C@@H](O)CN1

Tested on: IL-6
Assay: Example 9 Luminex, LPS hPBMCs: IL-6
Format: cell-based, human
Conditions: Bead IL-6
Description: Treatment Human PBMCs were pretreated with YY-101, YDE-011 and YDE-043 or reference compound; Xiidra® at various concentration (ranging from 1 nM to 100 uM) for 2 h before stimulation. An equal volume of 0.5% DMSO was used as a vehicle control. Then, the cells were treated with LPS at 5 ug/ml. The supernatants from treated cells were harvested at 24 h and placed in a 96 well for Luminex cytokine & chemokine profiling using a Luminex 200 multiplex assay (Luminex; R&D system, USA).
The main study arm with triplicate wells per group in a 24-well plate: • 1. Blank • 2. PBMC: 0.5% DMSO • 3. PBMC+LPS (5 ug/ml) • 4. PBMC+YY-101 100 uM • 5. PBMC+YY-101 10 uM • 6. PBMC+YY-101 1 uM • 7. PBMC+YY-101 0.1 uM • 8. PBMC+YY-101 0.01 uM • 9. PBMC+LPS (5 ug/ml)+Xiidra®100 uM • 10. PBMC+LPS (5 ug/ml)+Xiidra® 10 uM • 11. PBMC+LPS (5 ug/ml)+Xiidra® 1 uM • 12. PBMC+LPS (5 ug/ml)+Xiidra®0.1 uM • 13. PBMC+LPS (5 ug/ml)+Xiidra®0.01 uM • 14. PBMC+LPS (5 ug/ml)+Xiidra®0.001 uM • 15. PBMC+LPS (5 ug/ml)+YY-101 100 uM • 16. PBMC+LPS (5 ug/ml)+YY-101 10 uM • 17. PBMC+LPS (5 ug/ml)+YY-101 1 uM • 18. PBMC+LPS (5 ug/ml)+YY-101 0.1 uM • 19. PBMC+LPS (5 ug/ml)+YY-101 0.01 uM • 20. PBMC+LPS (5 ug/ml)+YY-101 0.001 uM • 21. PBMC+LPS (5 ug/ml)+YDE-011 100 uM • 22. PBMC+LPS (5 ug/ml)+YDE-011 10 uM • 23. PBMC+LPS (5 ug/ml)+YDE-011 1 uM • 24. PBMC+LPS (5 ug/ml)+YDE-011 0.1 uM • 25. PBMC+LPS (5 ug/ml)+YDE-011 0.01 uM • 26. PBMC+LPS (5 ug/ml)+YDE-011 0.001 uM • 27. PBMC+LPS (5 ug/ml)+YDE-043 100 uM • 28. PBMC+LPS (5 ug/ml)+YDE-043 10 uM • 29. PBMC+LPS (5 ug/ml)+YDE-043 1 uM • 30. PBMC+LPS (5 ug/ml)+YDE-043 0.1 uM • 31. PBMC+LPS (5 ug/ml)+YDE-043 0.01 uM • 32. PBMC+LPS (5 ug/ml)+YDE-043 0.001 uM
Multiplex assay was used to measure 30 cytokines and chemokines. The 1:2, 1:10 and 1:200 diluted cell supernatant and serial dilution of the standard were dispensed into a 96 well plate at 50 ul/well. Then, the pre-mixed cocktail of antibody-coated magnetic beads was dispensed at 50 ul/well and incubated at room temperature for 2 h in a horizontal orbital microplate shaker at 800±500 rpm. The beads were washed using a magnetic device to prevent loss. The biotin-antibody was dispensed in 50 ul of each well and incubated at room temperature for 1 h in a shaker at 800±500 rpm. After washing, streptavidin-PE was added at 50 ul/well and incubated at room temperature for 30 min in a shaker under the same conditions. Finally, after washing, wash buffer (100 ul/well) was added to the plate and incubated in a shaker for 2 min. The Luminex™ 200 setting were set according to the manufacturer's protocol. The data was calculated with a standard five-parameter logistic nonlinear regression analysis of the data (xPonent software 4.2, USA). The levels of cytokine/chemokine are normalized to the live cell counts (1×10^5 cells/mL) and presented as concentrations per mL (pg/mL or ng/mL).

[1] = PBMC + LPS(5 ug/ml), 0.001 uM, Mean
[2] = PBMC + LPS(5 ug/ml), 0.001 uM, single replicates
[3] = PBMC + LPS(5 ug/ml), 0.01 uM, Mean
[4] = PBMC + LPS(5 ug/ml), 0.01 uM, single replicates
[5] = PBMC + LPS(5 ug/ml), 0.1 uM, Mean
[6] = PBMC + LPS(5 ug/ml), 0.1 uM, single replicates
[7] = PBMC + LPS(5 ug/ml), 1 uM, Mean
[8] = PBMC + LPS(5 ug/ml), 1 uM, single replicates
[9] = PBMC + LPS(5 ug/ml), 10 uM, Mean
[10] = PBMC + LPS(5 ug/ml), 10 uM, single replicates
[11] = PBMC + LPS(5 ug/ml), 100 uM, Mean
[12] = PBMC + LPS(5 ug/ml), 100 uM, single replicates
[13] = PBMC without LPS, 0.01 uM, Mean
[14] = PBMC without LPS, 0.01 uM, single replicates
[15] = PBMC without LPS, 0.1 uM, single replicates
[16] = PBMC without LPS, 1 uM, single replicates
[17] = PBMC without LPS, 10 uM, single replicates
[18] = PBMC without LPS, 100 uM, single replicates

**Q.** Which results are given for CC(C)C[C@H](NC(=O)CNC(=O)[C@H](CC(=O)O)NC(=O)[C@H](CCC(N)=O)NC(=O)CNC(=O)[C@@H]1C[C@@H](O)CN1)C(=O)N[C@@H](C)C(=O)NCC(=O)N1CCC[C@H]1C(=O)N[C@@H](CCCCN)C(=O)O [YY-101] (H-[Hyp]GQDGLAGPK-OH; N-terminus and C-terminus assumed)?
**A.** Concentration [1]: 12498.5 pg/mL; MFI [1]: 355.4; conc/live cell [1]: 1952.7 pg/10^5; Concentration [2]: 13037.8 pg/mL and 12646.1 pg/mL and 11811.7 pg/mL; MFI [2]: 371.3 and 359.8 and 335.3; conc/live cell [2]: 2287.3 pg/10^5 and 1781.1 pg/10^5 and 1789.6 pg/10^5; Concentration [3]: 13304.7 pg/mL; MFI [3]: 379.1; conc/live cell [3]: 2159.4 pg/10^5; Concentration [4]: 13276.3 pg/mL and 13531.9 pg/mL and 13106.0 pg/mL; MFI [4]: 378.3 and 385.8 and 373.3; conc/live cell [4]: 2074.4 pg/10^5 and 2255.3 pg/10^5 and 2148.5 pg/10^5; Concentration [5]: 12816.4 pg/mL; MFI [5]: 364.8; conc/live cell [5]: 2203.2 pg/10^5; Concentration [6]: 12441.7 pg/mL and 13157.1 pg/mL and 12850.5 pg/mL; MFI [6]: 353.8 and 374.8 and 365.8; conc/live cell [6]: 2006.7 pg/10^5 and 2530.2 pg/10^5 and 2072.7 pg/10^5; Concentration [7]: 13020.8 pg/mL; MFI [7]: 370.8; conc/live cell [7]: 2001.1 pg/10^5; Concentration [8]: 13242.2 pg/mL and 12867.5 pg/mL and 12952.6 pg/mL; MFI [8]: 377.3 and 366.3 and 368.8; conc/live cell [8]: 2101.9 pg/10^5 and 1812.3 pg/10^5 and 2089.1 pg/10^5; Concentration [9]: 14020.8 pg/mL; MFI [9]: 400.1; conc/live cell [9]: 2132.1 pg/10^5; Concentration [10]: 13975.0 pg/mL and 15049.6 pg/mL and 13037.8 pg/mL; MFI [10]: 398.8 and 430.3 and 371.3; conc/live cell [10]: 2329.2 pg/10^5 and 2351.5 pg/10^5 and 1715.5 pg/10^5; Concentration [11]: 15533.5 pg/mL; MFI [11]: 444.4; conc/live cell [11]: 2685.2 pg/10^5; Concentration [12]: 16142.7 pg/mL and 15459.3 pg/mL and 14998.4 pg/mL; MFI [12]: 462.3 and 442.3 and 428.8; conc/live cell [12]: 2562.3 pg/10^5 and 2493.4 pg/10^5 and 2999.7 pg/10^5; MFI [13]: 3.3; conc/live cell [13]: 0.0 pg/10^5; MFI [14]: 4.3 and 2.3; conc/live cell [14]: 0.0 pg/10^5; MFI (PBMC without LPS, 0.1 uM, Mean): 1.3; conc/live cell (PBMC without LPS, 0.1 uM, Mean): 0.0 pg/10^5; MFI [15]: 1.3; conc/live cell [15]: 0.0 pg/10^5; MFI (PBMC without LPS, 1 uM, Mean): 1.8; conc/live cell (PBMC without LPS, 1 uM, Mean): 0.0 pg/10^5; MFI [16]: 2.3 and 1.3; conc/live cell [16]: 0.0 pg/10^5; Concentration (PBMC without LPS, 10 uM, Mean): 880.7 pg/mL; MFI (PBMC without LPS, 10 uM, Mean): 15.3; conc/live cell (PBMC without LPS, 10 uM, Mean): 68.8 pg/10^5; Concentration [17]: 880.7 pg/mL; MFI [17]: 27.3 and 3.3; conc/live cell [17]: 137.6 pg/10^5 and 0.0 pg/10^5; Concentration (PBMC without LPS, 100 uM, Mean): 524.7 pg/mL; MFI (PBMC without LPS, 100 uM, Mean): 15.8; conc/live cell (PBMC without LPS, 100 uM, Mean): 41.0 pg/10^5; Concentration [18]: 524.7 pg/mL; MFI [18]: 19.8 and 11.8; conc/live cell [18]: 82.0 pg/10^5 and 0.0 pg/10^5
